# System: testosterone-enhanced ventral prostate and seminal vesicle weights
# Test: Ventral Prostate and Seminal Vesicle Weight in vivo Assay; further: key: 'active' if the non weight adjusted prostate weight was ≦40 mg or the % Inhibition prostate weight, body weight adjusted was ≧40% @ 2 mg/day dosage; ID50's, if determined, of ≦15 mg/day also indicated an 'active' compound; listed herein as 'inactive' as they did not meet the specified criteria defined above
# Design: species or system rat
# Conditions: immature castrated male Sprague Dawley rats, once daily for five days, usually orally 40 mg/kg, with testosterone propionate 2 mg/kg s.c.
# Method: Immature (approximately 50 g) castrated male Sprague Dawley rats (Charles River) were treated once daily for five days with test compound (usually given orally at 40 mg/kg in a volume of 0.3 mL, in 30% cyclodextrin or 0.5% methylcellulose vehicle) and with testosterone propionate (given subcutaneously by injection at the nape of the neck at 2 mg/kg, in a volume of 0.1 mL in sesame oil). On the sixth day, the rats were euthanized by asphyxiation in carbon dioxide. Ventral prosatates and seminal vesicles were removed and their wet weights determined.
# A test compound was said to be “active” if the non weight adjusted prostate weight was ≦40 mg or the % Inhibition prostate weight, body weight adjusted was ≧40% @ 2 mg/day dosage.
row,SMILES,active / inactive: inhibition of testosterone-enhanced prostate weight
1,CCSCC(C)(O)c1cc2cc(C#N)c(C(F)(F)F)cc2n1CC (racemic) [Compound 243],active
2,CCSCC(C)(O)c1cc2cc([N+](=O)[O-])c(C(F)(F)F)cc2o1 (racemic) [Compound 9],inactive
3,CC(C)(O)c1cc2cc(Cl)c(Cl)cc2[nH]1 [Compound 405],inactive
4,COCn1c(C(C)(O)C(F)(F)F)cc2cc(C#N)c(C(F)(F)F)cc21 (racemic) [Compound 332],active
5,CCSCC(C)(O)c1cc2cc(C#N)c(Cl)cc2[nH]1 (racemic) [Compound 224],active
6,"CC(O)(COc1ccc(C#N)cc1)c1cc2cc(C#N)c(C(F)(F)F)cc2[nH]1 (stereo not shown) [Compound 426, 2-[2-(4-Cyano-phenoxy)-1-hydroxy-1-methyl-ethyl]-6-trifluoromethyl-1H -indole-5-carbonitrile]",inactive
7,CC(C)(O)c1cc2cc(Cl)c(C(F)(F)F)cc2[nH]1 [Compound 285],inactive
8,N#Cc1cc2cc(C(O)(C(F)(F)F)C(F)(F)F)[nH]c2cc1C(F)(F)F [Compound 357],active
9,CC(O)(c1cc2cc(C#N)c(C(F)(F)F)cc2n1CC#N)C(F)(F)F (racemic) [Compound 331],active
10,"CC(O)(COc1cccc([N+](=O)[O-])c1)c1cc2cc(C#N)c(C(F)(F)F)cc2[nH]1 (stereo not shown) [Compound 428, 2-[1-Hydroxy-1-methyl-2-(3-nitro-phenoxy)-ethyl]-6-trifluoromethyl-1H -indole-5-carbonitrile]",inactive
11,CCSCC(C)(O)c1cc2cc(N)c(C(F)(F)F)cc2[nH]1 (stereo not shown) [Compound 166],inactive
12,CC(C)(O)c1[nH]c2cc(C(F)(F)F)c([N+](=O)[O-])cc2c1Br [Compound 277],active
13,CCSCC(C)(O)c1cc2cc(C#N)c(OC)cc2[nH]1 (racemic) [Compound 445],inactive
14,CCSCC(O)(CC)c1cc2cc(Cl)c(C(F)(F)F)cc2[nH]1 (racemic) [Compound 181],active
15,CCSCC(C)(O)c1[nH]c2cc(C(F)(F)F)c(C#N)cc2c1C#C[Si](C)(C)C (racemic) [Compound 325],inactive
16,CC(C)(O)c1cc2cc(Cl)c(C(F)(F)F)cc2n1S(C)(=O)=O [Compound 284],active
17,CCSCC(C)(O)c1cc2cc(Cl)ccc2[nH]1 (racemic) [Compound 353],inactive
18,"CC(O)(c1[nH]c2cc(C(F)(F)F)c(C#N)cc2c1C#C[Si](C)(C)C)C(F)(F)F (single isomer, unassigned) [Compound 347]",active
19,CCSCC(C)(O)c1cc2cc(C#N)ccc2[nH]1 (racemic) [Compound 403],inactive
20,"CCSCC(C)(O)c1[nH]c2cc(C(F)(F)F)c(C#N)cc2c1I (single isomer, unassigned) [Compound 349]",active
21,"CCSCC(C)(O)c1[nH]c2cc(C(F)(F)F)c([N+](=O)[O-])cc2c1I (single isomer, unassigned) [Compound 241]",inactive
22,CCSCC(C)(O)c1cc2cc(C#N)c(C(F)(F)F)cc2n1CC#N (racemic) [Compound 323],inactive
23,CCSCC(C)(O)c1[nH]c2cc(C(F)(F)F)c(C#N)cc2c1I (racemic) [Compound 324],inactive
24,CCSCC(O)c1cc2cc(C#N)c(C(F)(F)F)cc2[nH]1 (racemic) [Compound 410],inactive
25,CC(C)(O)c1[nH]c2cc(C(F)(F)F)c(Cl)cc2c1Cl [Compound 282],inactive

row,SMILES,active / inactive: inhibition of testosterone-enhanced prostate weight
1,C=Cc1c(C(C)(C)O)[nH]c2cc(C(F)(F)F)c([N+](=O)[O-])cc12 [Compound 281],inactive
2,CCSCC(C)(O)c1cc2cc([N+](=O)[O-])c(C(F)(F)F)cc2[nH]1 (racemic) [Compound 153],inactive
3,C#Cc1c(C(C)(O)CSCC)[nH]c2cc(C(F)(F)F)c(C#N)cc12 (racemic) [Compound 326],inactive
4,CCSCC(C)(O)c1cc2cc(C#N)c(C)c(I)c2[nH]1 (racemic) [Compound 415],inactive
5,O=[N+]([O-])c1cc2cc(C3(O)CCSC3)[nH]c2cc1C(F)(F)F (racemic) [Compound 18],inactive
6,CCSCC(C)(O)c1cc2nc(C#N)ccc2[nH]1 (racemic) [Compound 6],inactive
7,"CC(O)(c1cc2cc(C#N)c(C(F)(F)F)cc2[nH]1)C(F)(F)F (stereo not shown) [Compound 335, 2-(2,2,2-Trifluoro-1-hydroxy-1-methyl-ethyl)-6-trifluoromethyl-1H-indole-5-carbonitrile]",active
8,"CCS(=O)(=O)CC(C)(O)c1cc2cc([N+](=O)[O-])c(C(F)(F)F)cc2n1C (single isomer, unassigned) [Compound 232]",active
9,"CC(O)(c1cc2cc(C#N)c(C(F)(F)F)cc2[nH]1)C(F)(F)F (stereo not shown) [Compound 329, 2-(2,2,2-Trifluoro-1-hydroxy-1-methyl-ethyl)-6-trifluoromethyl-1H-indole-5-carbonitrile]",active
10,CC(O)(C[S+]([O-])CC(F)(F)F)c1cc2cc([N+](=O)[O-])c(C(F)(F)F)cc2[nH]1 (mixture of isomers) [Compound 205],active
11,CC(C)(O)c1cc2cc(Br)ccc2[nH]1 [Compound 294],inactive
12,CC[S+]([O-])CC(C)(O)c1[nH]c2cc(C(F)(F)F)c(C#N)cc2c1C (mixture of isomers) [Compound 245],inactive
13,CCS(=O)(=O)CC(C)(O)c1cc2cc(C#N)c(C(F)(F)F)cc2[nH]1 (racemic) [Compound 407],inactive
14,"CCSCC(C)(O)c1c(C)c2cc(C#N)c(C(F)(F)F)cc2n1C (single isomer, unassigned) [Compound 317]",inactive
15,CC(C)(O)c1[nH]c2cc(C(F)(F)F)c([N+](=O)[O-])cc2c1C#N [Compound 291],active
16,CC(C)(O)c1[nH]c2cc(C(F)(F)F)c(C#N)cc2c1C#N [Compound 295],inactive
17,CC(C)(O)c1[nH]c2cc(C(F)(F)F)c(C#N)cc2c1Cl [Compound 287],inactive
18,CC(C)(O)c1[nH]c2cc(C(F)(F)F)c([N+](=O)[O-])cc2c1I [Compound 276],active
19,Cc1c(C(C)(C)O)[nH]c2cc(C(F)(F)F)c([N+](=O)[O-])cc12 [Compound 290],inactive
20,Cc1c(C(C)(C)O)[nH]c2cc(C(F)(F)F)c(C#N)cc12 [Compound 289],active
21,CC(O)(CS(=O)(=O)c1ccc(F)cc1)c1cc2cc(Cl)c(C(F)(F)F)cc2[nH]1 (stereo not shown) [Compound 85],inactive
22,CCSCC(C)(O)c1[nH]c2cc(C(F)(F)F)c(C#N)cc2c1CC (racemic) [Compound 344],active
23,CSCC(O)c1cc2cc(C#N)c(C(F)(F)F)cc2[nH]1 (racemic) [Compound 408],inactive
24,CC(C)(O)c1cc2cc([N+](=O)[O-])c(C(F)(F)F)cc2n1S(C)(=O)=O [Compound 273],inactive
